Source: patent publication US20240294572A1, “Antimicrobial Peptides” (priority 2021, published 2024)
≈ marks a conversion by molar mass, not a printed value. Residues, ends and D or L forms follow the SMILES beside them. *: point of attachment. Octanoyl = CCCCCCCC(=O)*

Legend:
S. aureus USA300 = assay: Bacterial membrane depolarization (DiBAC4(3)); assay type: cell-based; settings: 3.1, 6.25, 12.5, and 25 μM; 40 minutes
Procedure: The experiment was conducted as described (Marks, et al. (2013) PLOS One 8:e63158). In brief, an overnight culture of S. aureus USA300 was subcultured in a fresh TSB medium and grown to the exponential phase. Cells were spun using centrifugation, washed 2× with PBS, resuspended in twice the volume of PBS containing 25 mM glucose, and incubated at 37° C. for 15 minute. For membrane depolarization measurements, 500 nM (final concentration) of the dye DiBAC4 (3) bis(1,3-dibutylbarbituric acid) trimethine oxonol (ANASPEC, CA) was added, and the reaction mixture was vortexed gently. Aliquots of 90 μL of the energized bacteria solution were loaded to the wells, and the plate was fed into a FLUOstar® Omega microplate reader. Fluorescence was read for 20 minutes at excitation and emission wavelengths of 485 and 520 nm, respectively, to get dye normalization. Then, 10 μL of the peptide solution was added and gently mixed. Fluorescence readings were recorded for 40 minutes, where Triton™ X-100 (0.1%) was used as a positive control.

S. aureus USA300 LAC [1] = assay: Bacterial resistance development, multiple passage experiment; assay type: cell-based; settings: 14 passages/days at sub-MIC
Procedure: This experiment was performed similar to the MIC determination with a few modifications as described (Mishra, et al. (2019) Proc. Natl. Acad. Sci., 116:13517-13522). In short, an exponential phase S. aureus USA300 culture (i.e., optical density at 600 nm≈0.5) was diluted and partitioned into a 96-well polystyrene microplate with ˜10^5 bacteria per well (90 μL aliquots). After treatment with 10 μL of peptide or nafcillin solutions at various concentrations, microplates were incubated at 37° C. overnight and read on a ChroMate® 4300 Microplate Reader at 630 nm (Awareness Technology, FL). Of the wells with sub-MIC levels of the peptides that retained growth, approximately half of the control wells were again reinoculated in fresh TSB with sub-MIC concertation of peptides or antibiotics to attain exponential phase for MIC determination. Up to 15 serial passages of the bacteria cultures were conducted. The increase in the fold change (MIC on given passage/MIC recorded in first day of passage) was used to determine the degree of drug resistance.

[2] = system: Klebsiella pneumonia ATCC 13883; assay: Antibacterial broth microdilution MIC; assay type: cell-based
Procedure: (§1) The antibacterial activity of peptides was evaluated using a standard broth microdilution protocol (Clinical Laboratories Standards Institute (CLSI): M07-A10. Methods for Dilution Antimicrobial Susceptibility Tests for Bacteria that grow aerobically; Approved Standard, Tenth Edition, 2015) with minor modifications as described (Mishra, et al. (2019) Proc. Natl. Acad. Sci., 116:13517-13522). In brief, peptides (10 μL per well) with 2-fold dilutions were made in 96-well polystyrene microplates. Subsequently, the logarithmic phase bacterial cultures (i.e., optical density at 600 nm ˜0.5) were diluted to 0.001 OD and aliquoted to 90 μL per well. The plates were incubated overnight at 37°° C. Bacterial controls were treated with water, and the wells containing only the TSB media were used as blank. Positive controls included the parent peptide LL-37 as well as KR12. Post incubation, the plates were read at 630 nm using ChroMate® 4300 Microplate Reader (Awareness Technology, FL).

S. aureus USA300 LAC [3] = assay type: cell-based
Procedure: as §1
To study the influence of medium conditions on the antimicrobial activity of peptides against S. aureus USA300, different pH, sodium chloride (NaCl), human sera were included into the antibacterial assays. Control experiments in TSB without any additions (pH 7.4) were set up in the same manner. In addition, antimicrobial activities of human LL-37, KR12, and C10-KR8d were compared in 10%, 50%, and 100% TSB as well as in TSB and MHB using E. coli ATCC 25922 and S. aureus USA300 LAC.

[4] = system: human red blood cells (hRBCs); assay type: cell-based; settings: red cells of human, 1 h
Procedure: Hemolytic assays of peptides were performed as described (Lakshmaiah, et al. (2020) Proc. Natl. Acad. Sci., 117:19446-19454). Briefly, human red blood cells (hRBCs) were obtained from UNMC Blood Bank. The cells were washed 3× with isotonic saline (0.9% NaCl) and diluted to 2% (v/v). Peptides at various concentrations were added to the 2% blood cells and incubated at 37° C. for 1 hour. Post-incubation, the plates were spun at 2000 rpm for 10 minutes; aliquots of the supernatant were carefully transferred to a fresh 96-well microplate. The amount of cells lysed is proportional to the hemoglobin released and was measured at 545 nm using a ChroMate® microplate reader (Awareness Technology, FL). The percent lysis was calculated by assuming 100% release when human blood cells were treated with 1% Triton™ X-100, and 0% release when incubated with PBS. The peptide concentration that caused 50% lysis of hRBCs is defined as HC50. The cell selectivity index (CSI) was calculated as the ratio between HC50 and the MIC of the corresponding peptide against MRSA.

S. aureus Newman = assay type: cell-based
Procedure: as §1

[5] = system: clinical strains of S. aureus, including USA200, USA400, Newman, and Mu50; assay type: cell-based
Procedure: as §1

S. aureus USA200 = assay type: cell-based
Procedure: as §1

S. aureus USA400 = assay type: cell-based
Procedure: as §1

S. aureus Mu50 = assay type: cell-based
Procedure: as §1

HaCaT cells = assay type: cell-based, human
Procedure: Peptides were assessed for potential cytotoxicity using HaCaT cells (Addexbio Technologies, CA). Briefly, cells were seeded at a density of 1×10^4 per well in a tissue culture 96-well plate. DMEM was supplemented with 10% fetal bovine serum (FBS) and incubated at 37° C. in a 5% CO2 atmosphere for 24 hours. Culture medium was aspirated and replaced with fresh serum free media. Cells were exposed to different concentrations of peptides for 1 hour at 37° C. in a 5% CO2 atmosphere. Post-incubation, the cells were washed and incubated with 100 μL of DMEM media containing 20 μL of MTS reagent for 2 hours at 37° C. Absorbance was read at 492 nm using a ChroMate® microplate reader (Awareness Technology, FL).

For `CCCCCCCCCC(=O)N[C@@H](Cc1c[nH]c2ccccc12)C(=O)N[C@H](CC(N)=O)C(=O)N[C@@H](CC(=O)O)C(=O)N[C@@H]1C(=O)NCC(=O)N[C@@H](CCCN)C(=O)N[C@@H](CC(=O)O)C(=O)N[C@H](C)C(=O)N[C@@H](CC(=O)O)C(=O)NCC(=O)N[C@H](CO)C(=O)N[C@@H]([C@H](C)CC(=O)O)C(=O)N[C@@H](CC(=O)c2ccccc2N)C(=O)O[C@@H]1C` [daptomycin, reference compound], the “membrane depolarization ability (order)” value (S. aureus USA300) was “Triton™ X-100>17BIPHE2>C10-KR8d>daptomycin”.

For `CCOc1ccc2ccccc2c1C(=O)N[C@@H]1C(=O)N2[C@@H]1SC(C)(C)[C@@H]2C(=O)O` [nafcillin, reference compound], the “MIC increase in multiple passage experiment” value (S. aureus USA300 LAC [1]) was “over 30 fold”.

With `CCCCCCCC(=O)N[C@@H](CCCCN)C(=O)N[C@@H](CCCNC(=N)N)C(=O)N[C@H](C(=O)N[C@@H](Cc1c[nH]c2ccccc12)C(=O)N[C@@H](CCC(N)=O)C(=O)N[C@@H](CCCNC(=N)N)C(=O)N[C@H](C(=O)N[C@@H](CCCCN)C(=O)N[C@@H](CC(=O)O)C(=O)N[C@@H](Cc1ccccc1)C(N)=O)[C@@H](C)CC)[C@@H](C)CC` [Peptide C8-KR10] (Octanoyl-KRIWQRIKDF-NH2) the “MIC (μM) KP” value [2] was 25 µM (≈ 37.9 µg/mL), the “MIC (μM) SA” value (S. aureus USA300 LAC [3]; USA300) was 3.1 to 6.2 µM and the “Minimal inhibitory concentration (MIC), pH = 6.8” value (S. aureus USA300 LAC [3]; USA300, pH 6.8) was 12.5 μM. For the same compound, the “HC50” value [4] was 250 µM, the “Minimal inhibitory concentration, Newman” value (S. aureus Newman) was 6.2 µM (≈ 9.39 µg/mL) and the “MIC against clinical strains of S. aureus” value [5] was 1.6 to 6.2 µM. The “Minimal inhibitory concentration, USA200” value (S. aureus USA200) was 6.2 µM (≈ 9.39 µg/mL), the “Minimal inhibitory concentration, USA400” value (S. aureus USA400) was 3.1 µM (≈ 4.7 µg/mL) and the “Minimal inhibitory concentration, Mu50” value (S. aureus Mu50) was 6.2 µM (≈ 9.39 µg/mL). The “relative toxicity to HaCaT cells” value (HaCaT cells) was “slightly less toxic than C8-KR10d”.
